Results published in patent publication US10150760B2, “Compounds for use in preparing heterocyclic triazole agonists of the APJ receptor” (AMGEN INC., priority 2016, dated 2018).

Target: human APJ receptor (Homo sapiens (Human), UniProt P35414)
Assay: [35S]GTPγS binding assay on membranes from CHO cells stably expressing human APJ receptor
Format: biochemical
Conditions: read-out: Activity hAPJ SPA EC50 IP
Summary of the method: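 Agonist-driven [35S]GTPγS (0.2 nM) binding was measured over 90 min at room temperature on human APJ-expressing CHO membranes with bead capture, in buffer containing 3 μM GDP, 200 mM NaCl and 5 mM MgCl2 (pH 7.5). Excess unlabelled GTPγS (100 μM) gave nonspecific signal; EC50 from non-linear fits.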

human APJ receptor, sequence (P35414 whole entry): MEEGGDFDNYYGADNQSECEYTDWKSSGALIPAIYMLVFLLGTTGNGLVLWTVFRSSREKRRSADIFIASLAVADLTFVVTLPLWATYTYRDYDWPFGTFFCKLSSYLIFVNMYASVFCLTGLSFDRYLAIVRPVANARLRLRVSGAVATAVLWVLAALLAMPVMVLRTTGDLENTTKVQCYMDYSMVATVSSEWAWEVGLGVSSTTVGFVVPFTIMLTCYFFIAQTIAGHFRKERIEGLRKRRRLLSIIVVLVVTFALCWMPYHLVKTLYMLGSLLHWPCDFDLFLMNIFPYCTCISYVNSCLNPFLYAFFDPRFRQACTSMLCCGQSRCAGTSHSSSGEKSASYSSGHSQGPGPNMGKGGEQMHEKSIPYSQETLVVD

## (2S,3R)-3-(5-chloropyrimidin-2-yl)-N-(4-(2,6-dimethoxyphenyl)-5-((S)-3-oxoisoindolin-1-yl)-4H-1,2,4-triazol-3-yl)butane-2-sulfonamide or (2S,3R)-3-(5-chloropyrimidin-2-yl)-N-(4-(2,6-dimethoxyphenyl)-5-((R)-3-oxoisoindolin-1-yl)-4H-1,2,4-triazol-3-yl)butane-2-sulfonamide [Example 234.0]
  EC50: 230 nM

## (2S,3R)-N-(4-(2,6-dimethoxyphenyl)-5-((S)-tetrahydrothiophen-2-yl)-4H-1,2,4-triazol-3-yl)-3-(5-methylpyrimidin-2-yl)butane-2-sulfonamide or (2S,3R)-N-(4-(2,6-dimethoxyphenyl)-5-((R)-tetrahydrothiophen-2-yl)-4H-1,2,4-triazol-3-yl)-3-(5-methylpyrimidin-2-yl)butane-2-sulfonamide [Example 223.0]
  EC50: 12 nM

## CO[C@H](c1ncc(Cl)cn1)[C@H](C)S(=O)(=O)Nc1nnc([C@@H]2CCCO2)n1-c1ccccc1Cl [Example 243.0, (1R,2S)-N-(4-(2-chlorophenyl)-5-((2S)-tetrahydro-2-furanyl)-4H-1,2,4-triazol-3-yl)-1-(5-chloro-2-pyrimidinyl)-1-methoxy-2-propanesulfonamide]
  EC50: 5.6 nM

## (1R,2S)-1-(5-chloropyrimidin-2-yl)-N-(5-((R)-2,3-dihydrobenzo[b][1,4]dioxin-2-yl)-4-(2,6-dimethoxyphenyl)-4H-1,2,4-triazol-3-yl)-1-methoxypropane-2-sulfonamide or (1R,2S)-1-(5-chloropyrimidin-2-yl)-N-(5-((S)-2,3-dihydrobenzo[b][1,4]dioxin-2-yl)-4-(2,6-dimethoxyphenyl)-4H-1,2,4-triazol-3-yl)-1-methoxypropane-2-sulfonamide [Example 258.0]
  EC50: 33 nM

## (1R,2S)-N-(4-(2,6-dimethoxyphenyl)-5-((R)-1,4-dioxan-2-yl)-4H-1,2,4-triazol-3-yl)-1-ethoxy-1-(5-methylpyrimidin-2-yl)propane-2-sulfonamide or (1R,2S)-N-(4-(2,6-dimethoxyphenyl)-5-((S)-1,4-dioxan-2-yl)-4H-1,2,4-triazol-3-yl)-1-ethoxy-1-(5-methylpyrimidin-2-yl)propane-2-sulfonamide [Example 203.0]
  EC50: 33 nM

## COc1cccc(OC)c1-n1c(NS(=O)(=O)[C@@H](C)[C@H](OC)c2ncc(Cl)cn2)nnc1[C@H]1CCC(C)(C)O1 (single isomer, unassigned) [Example 108.0, (1R,2S)-1-(5-chloropyrimidin-2-yl)-N-(4-(2,6-dimethoxyphenyl)-5-((S)-5,5-dimethyltetrahydrofuran-2-yl)-4H-1,2,4-triazol-3-yl)-1-methoxypropane-2-sulfonamide or (1R,2S)-1-(5-chloropyrimidin-2-yl)-N-(4-(2,6-dimethoxyphenyl)-5-((R)-5,5-dimethyltetrahydrofuran-2-yl)-4H-1,2,4-triazol-3-yl)-1-methoxypropane-2-sulfonamide]
  EC50: 25 nM

## COc1cccc(OC)c1-n1c(NS(=O)(=O)CCc2ccc(F)cc2C#N)nnc1[C@@H]1CCC(=O)N1 [Example 44.0, 2-(2-Cyano-4-fluorophenyl)-N-(4-(2,6-dimethoxyphenyl)-5-((2S)-5-oxo-2-pyrrolidinyl)-4H-1,2,4-triazol-3-yl)ethanesulfonamide]
  EC50: 430 nM

## (1R,2S)-N-(4-([1,1′-bi(cyclopropyl)]-1-yl)-5-((2R)-1,4-dioxan-2-yl)-4H-1,2,4-triazol-3-yl)-1-methoxy-1-(5-methyl-2-pyrazinyl)-2-propanesulfonamide or (1R,2S)-N-(4-([1,1′-bi(cyclopropyl)]-1-yl)-5-((2S)-1,4-dioxan-2-yl)-4H-1,2,4-triazol-3-yl)-1-methoxy-1-(5-methyl-2-pyrazinyl)-2-propanesulfonamide [Example 328.0]
  EC50: 230 nM

## COc1cccc(OC)c1-n1c(NS(=O)(=O)[C@@H](C)[C@H](OC)c2ncc(Cl)cn2)nnc1[C@H]1CCO[C@@H]1C (single isomer, unassigned) [Example 114.0, (1R,2S)-1-(5-chloropyrimidin-2-yl)-N-(4-(2,6-dimethoxyphenyl)-5-((2R,3R)-2-methyltetrahydrofuran-3-yl)-4H-1,2,4-triazol-3-yl)-1-methoxypropane-2-sulfonamide or (1R,2S)-1-(5-chloropyrimidin-2-yl)-N-(4-(2,6-dimethoxyphenyl)-5-((2S,3S)-2-methyltetrahydrofuran-3-yl)-4H-1,2,4-triazol-3-yl)-1-methoxypropane-2-sulfonamide]
  EC50: 110 nM

## COc1cccc(OC)c1-n1c(NS(=O)(=O)[C@@H](C)[C@H](C)c2cnc(C)cn2)nnc1[C@H]1CCOC1 (single isomer, unassigned) [Example 133.0, (2S,3R)-N-(4-(2,6-dimethoxyphenyl)-5-((R)-tetrahydrofuran-3-yl)-4H-1,2,4-triazol-3-yl)-3-(5-methylpyrazin-2-yl)butane-2-sulfonamide or (2S,3R)-N-(4-(2,6-dimethoxyphenyl)-5-((S)-tetrahydrofuran-3-yl)-4H-1,2,4-triazol-3-yl)-3-(5-methylpyrazin-2-yl)butane-2-sulfonamide]
  EC50: 320 nM

## COc1cccc(OC)c1-n1c(NS(=O)(=O)[C@@H](C)[C@H](C)c2ncc(F)cn2)nnc1[C@@H]1COCCO1 (single isomer, unassigned) [Example 276.0, (2S,3R)-N-(4-(2,6-dimethoxyphenyl)-5-((R)-1,4-dioxan-2-yl)-4H-1,2,4-triazol-3-yl)-3-(5-fluoropyrimidin-2-yl)butane-2-sulfonamide or (2S,3R)-N-(4-(2,6-dimethoxyphenyl)-5-((S)-1,4-dioxan-2-yl)-4H-1,2,4-triazol-3-yl)-3-(5-fluoropyrimidin-2-yl)butane-2-sulfonamide]
  EC50: 33 nM

## COc1ncnc(OC)c1-n1c(NS(=O)(=O)[C@@H](C)[C@H](C)c2ccc(C#N)cn2)nnc1[C@H]1CCOC1 (single isomer, unassigned) [Example 383.0, (2S,3R)-3-(5-cyano-2-pyridinyl)-N-(4-(4,6-dimethoxy-5-pyrimidinyl)-5-((3R)-tetrahydro-3-furanyl)-4H-1,2,4-triazol-3-yl)-2-butanesulfonamide or (2S,3R)-3-(5-cyano-2-pyridinyl)-N-(4-(4,6-dimethoxy-5-pyrimidinyl)-5-((3S)-tetrahydro-3-furanyl)-4H-1,2,4-triazol-3-yl)-2-butanesulfonamide]
  EC50: 680 nM

## COc1cccc(OC)c1-n1c(NS(=O)(=O)[C@@H](C)[C@@H](OC(C)C)c2cnc(C)cn2)nnc1[C@H]1CCCO1 (single isomer, unassigned) [Example 66.0]
  EC50: 6.9 nM

## COc1cccc(OC)c1-n1c(NS(=O)(=O)[C@@H](C)[C@H](C)c2ncc(F)cn2)nnc1[C@@H]1COC(C)(C)C1 (single isomer, unassigned) [Example 395.0, (2S,3R)-N-(4-(2,6-dimethoxyphenyl)-5-((3R)-5,5-dimethyltetrahydro-3-furanyl)-4H-1,2,4-triazol-3-yl)-3-(5-fluoro-2-pyrimidinyl)-2-butanesulfonamide or (2S,3R)-N-(4-(2,6-dimethoxyphenyl)-5-((3S)-5,5-dimethyltetrahydro-3-furanyl)-4H-1,2,4-triazol-3-yl)-3-(5-fluoro-2-pyrimidinyl)-2-butanesulfonamide]
  EC50: 67 nM

## (1S,2S)-N-(4-(2,6-dimethoxyphenyl)-5-((S)-1,4-dioxan-2-yl)-4H-1,2,4-triazol-3-yl)-1-isopropoxy-1-(5-methylpyrimidin-2-yl)propane-2-sulfonamide and (1S,2S)-N-(4-(2,6-dimethoxyphenyl)-5-((R)-1,4-dioxan-2-yl)-4H-1,2,4-triazol-3-yl)-1-isopropoxy-1-(5-methylpyrimidin-2-yl)propane-2-sulfonamide [Example 256.0]
  EC50: 15 nM

## (2R,3S)-N-(4-(2,6-dimethoxyphenyl)-5-((S)-tetrahydrofuran-2-yl)-4H-1,2,4-triazol-3-yl)-3-(5-methylpyrimidin-2-yl)butane-2-sulfonamide or (2R,3S)-N-(4-(2,6-dimethoxyphenyl)-5-((R)-tetrahydrofuran-2-yl)-4H-1,2,4-triazol-3-yl)-3-(5-methylpyrimidin-2-yl)butane-2-sulfonamide [Example 219.0]
  EC50: 220 nM

## (2S,3R)-3-(5-chloro-2-pylimidinyl)-N-(4-(1,3-dimethoxy-2-propanyl)-5-((2R,5R)-5-methyltetrahydro-2-furanyl)-4H-1,2,4-triazol-3-yl)-2-butanesulfonamide or (2S,3R)-3-(5-chloro-2-pyrimidinyl)-N-(4-(1,3-dimethoxy-2-propanyl)-5-((2S,5S)-5-methyltetrahydro-2-furanyl)-4H-1,2,4-triazol-3-yl)-2-butanesulfonamide [Example 375.0]
  EC50: 92 nM

## COCC1(n2c(NS(=O)(=O)[C@@H](C)[C@H](OC)c3ncc(Cl)cn3)nnc2[C@H]2CCOC2)CC1 (single isomer, unassigned) [Example 340.0, (1R,2S)-1-(5-chloro-2-pyrimidinyl)-1-methoxy-N-(4-(1-(methoxymethyl)cyclopropyl)-5-((3R)-tetrahydro-3-furanyl)-4H-1,2,4-triazol-3-yl)-2-propanesulfonamide or (1R,2S)-1-(5-chloro-2-pyrimidinyl)-1-methoxy-N-(4-(1-(methoxymethyl)cyclopropyl)-5-((3S)-tetrahydro-3-furanyl)-4H-1,2,4-triazol-3-yl)-2-propanesulfonamide]
  EC50: 150 nM

## CO[C@H](c1ncc(Cl)cn1)[C@H](C)S(=O)(=O)Nc1nnc([C@H]2CCCO2)n1C1(C)CC1 (single isomer, unassigned) [Example 110.0, (1R,2S)-1-(5-chloropyrimidin-2-yl)-1-methoxy-N-(4-(1-methylcyclopropyl)-5-((S)-tetrahydrofuran-2-yl)-4H-1,2,4-triazol-3-yl)propane-2-sulfonamide or (1R,2S)-1-(5-chloropyrimidin-2-yl)-1-methoxy-N-(4-(1-methylcyclopropyl)-5-((R)-tetrahydrofuran-2-yl)-4H-1,2,4-triazol-3-yl)propane-2-sulfonamide]
  EC50: 30 nM
